According to PubChem BioAssay AID2060890 (Molecular Pharmacology Branch, DTP, NCI, 2025):
“And” between values parts separate entries of the source, which are not always exact repeats. Equal values may be shown once.

Test system: LG0703-F948-PDC complex spheroid viability
Experiment: Anticancer human tumor LG0703-F948-PDC patient-derived lung adenocarcinoma cell line growth inhibition [RAS]
Conditions: for viability, T/C: stronger effect = lower value
Method in brief: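 Multi-cell-type spheroids: tumor cells plus HUVEC endothelial cells and mesenchymal stem cells. RAS-pathway inhibitors were combined with targeted agents, each dosed in half-log steps down from clinical Cmax, or from 10 microM when Cmax was unknown.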

[1] = curve of first compound, second compound 0.000949 µM
[2] = curve of first compound, second compound 0.003 µM
[3] = curve of first compound, second compound 0.00949 µM
[4] = curve of first compound, second compound 0.03 µM
[5] = curve of first compound, second compound 0.0949 µM
[6] = curve of first compound, second compound 0.3 µM
[7] = second compound 0.000949 µM, first compound 0.0316 µM
[8] = second compound 0.000949 µM, first compound 0.1 µM
[9] = second compound 0.000949 µM, first compound 0.316 µM
[10] = second compound 0.000949 µM, first compound 1 µM
[11] = second compound 0.000949 µM, first compound 3.16 µM
[12] = second compound 0.000949 µM, first compound 10 µM
[13] = second compound 0.003 µM, first compound 0.0316 µM
[14] = second compound 0.003 µM, first compound 0.1 µM
[15] = second compound 0.003 µM, first compound 0.316 µM
[16] = second compound 0.003 µM, first compound 1 µM
[17] = second compound 0.003 µM, first compound 3.16 µM
[18] = second compound 0.003 µM, first compound 10 µM
[19] = second compound 0.00949 µM, first compound 0.0316 µM
[20] = second compound 0.00949 µM, first compound 0.1 µM
[21] = second compound 0.00949 µM, first compound 0.316 µM
[22] = second compound 0.00949 µM, first compound 1 µM
[23] = second compound 0.00949 µM, first compound 3.16 µM
[24] = second compound 0.00949 µM, first compound 10 µM
[25] = second compound 0.03 µM, first compound 0.0316 µM
[26] = second compound 0.03 µM, first compound 0.1 µM
[27] = second compound 0.03 µM, first compound 0.316 µM
[28] = second compound 0.03 µM, first compound 1 µM
[29] = second compound 0.03 µM, first compound 3.16 µM
[30] = second compound 0.03 µM, first compound 10 µM
[31] = second compound 0.0949 µM, first compound 0.0316 µM
[32] = second compound 0.0949 µM, first compound 0.1 µM
[33] = second compound 0.0949 µM, first compound 0.316 µM
[34] = second compound 0.0949 µM, first compound 1 µM
[35] = second compound 0.0949 µM, first compound 3.16 µM
[36] = second compound 0.0949 µM, first compound 10 µM
[37] = second compound 0.3 µM, first compound 0.0316 µM
[38] = second compound 0.3 µM, first compound 0.1 µM
[39] = second compound 0.3 µM, first compound 0.316 µM
[40] = second compound 0.3 µM, first compound 1 µM
[41] = second compound 0.3 µM, first compound 3.16 µM
[42] = second compound 0.3 µM, first compound 10 µM
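Note: spheroids exposed to agents for 7 days.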
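Throughout, for viability, T/C: 100% = DMSO vehicle wells.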

CCC(CC)c1cc(NC2CCC(N)C2)n2nccc2n1 (stereo not drawn) + CCn1c(-c2cccnc2C(C)OC)c2c3cc(ccc31)N1CCOC(CC(NC(=O)C(C(C)C)N(C)C(=O)C3(F)CCN(C(=O)C#CC(C)(C)N(C)C)CC3)C(=O)N3CCCC(N3)C(=O)OCC(C)(C)C2)C1
IC50 [1]: 0.964 µM | IC50 [2]: 1.04 µM | IC50 [3]: 1.6 µM | IC50 [4]: 1.09 µM | IC50 [5]: 0.36 µM | IC50 [6]: < 0.0316 µM | viability, T/C [7]: 104% | viability, T/C [8]: 89.9% | viability, T/C [9]: 79.8% | viability, T/C [10]: 54% | viability, T/C [11]: 5.17% | viability, T/C [12]: 0.33% | viability, T/C [13]: 104% | viability, T/C [14]: 96.8% | viability, T/C [15]: 79.4% | viability, T/C [16]: 58.2% | viability, T/C [17]: 4.18% | viability, T/C [18]: 0.26% | viability, T/C [19]: 87.5% | viability, T/C [20]: 79.6% | viability, T/C [21]: 80.6% | viability, T/C [22]: 81.6% | viability, T/C [23]: 4.34% | viability, T/C [24]: 0.8% | viability, T/C [25]: 100% | viability, T/C [26]: 91.1% | viability, T/C [27]: 77.5% | viability, T/C [28]: 58.6% | viability, T/C [29]: 4.55% | viability, T/C [30]: 0.32% | viability, T/C [31]: 85.2% | viability, T/C [32]: 65.5% | viability, T/C [33]: 53.1% | viability, T/C [34]: 37.2% | viability, T/C [35]: 3.64% | viability, T/C [36]: 0.29% | viability, T/C [37]: 41.6% | viability, T/C [38]: 41.2% | viability, T/C [39]: 27.3% | viability, T/C [40]: 22.4% | viability, T/C [41]: 3.57% | viability, T/C [42]: 0.69%

CCC(CC)c1cc(NC2CCC(N)C2)n2nccc2n1 (stereo not drawn) + CCn1c(-c2cc(N3CCN(C)CC3)cnc2C(C)OC)c2c3cc(ccc31)-c1csc(n1)CC(NC(=O)C1CC1C)C(=O)N1CCCC(N1)C(=O)OCC(C)(C)C2
IC50 [1]: 0.427 µM | IC50 [2]: < 0.0316 µM | IC50 [3]: < 0.0316 µM | IC50 [4]: < 0.0316 µM | IC50 [5]: < 0.0316 µM | IC50 [6]: < 0.0316 µM | viability, T/C [7]: 72.3% | viability, T/C [8]: 59.8% | viability, T/C [9]: 55.2% | viability, T/C [10]: 33.9% | viability, T/C [11]: 0.67% | viability, T/C [12]: 0.23% | viability, T/C [13]: 44.1% | viability, T/C [14]: 40.2% | viability, T/C [15]: 36.8% | viability, T/C [16]: 25.3% | viability, T/C [17]: 0.46% | viability, T/C [18]: 0.16% | viability, T/C [19]: 24.1% | viability, T/C [20]: 20.3% | viability, T/C [21]: 17.9% | viability, T/C [22]: 9.58% | viability, T/C [23]: 0.42% | viability, T/C [24]: 0.27% | viability, T/C [25]: 13% | viability, T/C [26]: 13.9% | viability, T/C [27]: 13.1% | viability, T/C [28]: 6.07% | viability, T/C [29]: 0.25% | viability, T/C [30]: 0.24% | viability, T/C [31]: 9.5% | viability, T/C [32]: 10.2% | viability, T/C [33]: 9.16% | viability, T/C [34]: 5.84% | viability, T/C [35]: 0.57% | viability, T/C [36]: 0.11% | viability, T/C [37]: 8.46% | viability, T/C [38]: 9.75% | viability, T/C [39]: 8.9% | viability, T/C [40]: 4.9% | viability, T/C [41]: 0.23% | viability, T/C [42]: 0.41%

C=CC(=O)N1CCN(c2nc(OCC3CCCN3C)nc3c(F)c(-c4nc(N)cc(C)c4C(F)(F)F)c(Cl)cc23)C(C)C1 (stereo not drawn) + C#Cc1c(F)ccc2cc(O)cc(-c3ncc4c(N5CC6CCC(C5)N6)nc(OCC56CCCN5CC(F)C6)nc4c3F)c12
IC50 (curve of first compound, second compound 0.0316 µM): > 1 µM | IC50 (curve of first compound, second compound 0.1 µM): > 1 µM | IC50 (curve of first compound, second compound 0.316 µM): > 1 µM | IC50 (curve of first compound, second compound 1 µM): > 1 µM | IC50 (curve of first compound, second compound 3.16 µM): > 1 µM | IC50 (curve of first compound, second compound 10 µM): 0.197 µM | viability, T/C (second compound 0.0316 µM, first compound 0.00316 µM): 127% | viability, T/C (second compound 0.0316 µM, first compound 0.01 µM): 87.8% | viability, T/C (second compound 0.0316 µM, first compound 0.0316 µM): 111% | viability, T/C (second compound 0.0316 µM, first compound 0.1 µM): 120% | viability, T/C (second compound 0.0316 µM, first compound 0.316 µM): 109% | viability, T/C (second compound 0.0316 µM, first compound 1 µM): 85.2% | viability, T/C (second compound 0.1 µM, first compound 0.00316 µM): 98.7% | viability, T/C (second compound 0.1 µM, first compound 0.01 µM): 110% | viability, T/C (second compound 0.1 µM, first compound 0.0316 µM): 94.9% | viability, T/C (second compound 0.1 µM, first compound 0.1 µM): 104% | viability, T/C (second compound 0.1 µM, first compound 0.316 µM): 109% | viability, T/C (second compound 0.1 µM, first compound 1 µM): 97.8% | viability, T/C (second compound 0.316 µM, first compound 0.00316 µM): 89.5% | viability, T/C (second compound 0.316 µM, first compound 0.01 µM): 82.2% | viability, T/C (second compound 0.316 µM, first compound 0.0316 µM): 86.1% | viability, T/C (second compound 0.316 µM, first compound 0.1 µM): 72.6% | viability, T/C (second compound 0.316 µM, first compound 0.316 µM): 82% | viability, T/C (second compound 0.316 µM, first compound 1 µM): 84.6% | viability, T/C (second compound 1 µM, first compound 0.00316 µM): 63.7% | viability, T/C (second compound 1 µM, first compound 0.01 µM): 76.6% | viability, T/C (second compound 1 µM, first compound 0.0316 µM): 79.3% | viability, T/C (second compound 1 µM, first compound 0.1 µM): 66.2% | viability, T/C (second compound 1 µM, first compound 0.316 µM): 73.9% | viability, T/C (second compound 1 µM, first compound 1 µM): 75% | viability, T/C (second compound 3.16 µM, first compound 0.00316 µM): 61.8% | viability, T/C (second compound 3.16 µM, first compound 0.01 µM): 57.8% | viability, T/C (second compound 3.16 µM, first compound 0.0316 µM): 75.3% | viability, T/C (second compound 3.16 µM, first compound 0.1 µM): 63.6% | viability, T/C (second compound 3.16 µM, first compound 0.316 µM): 59.3% | viability, T/C (second compound 3.16 µM, first compound 1 µM): 62.9% | viability, T/C (second compound 10 µM, first compound 0.00316 µM): 51.9% | viability, T/C (second compound 10 µM, first compound 0.01 µM): 54.2% | viability, T/C (second compound 10 µM, first compound 0.0316 µM): 54.1% | viability, T/C (second compound 10 µM, first compound 0.1 µM): 47.5% | viability, T/C (second compound 10 µM, first compound 0.316 µM): 50.7% | viability, T/C (second compound 10 µM, first compound 1 µM): 47%

CCC(CC)c1cc(NC2CCC(N)C2)n2nccc2n1 (stereo not drawn)
viability, T/C (compound 0.0316 µM): 85.9% and 96.8% and 101% | viability, T/C (compound 0.1 µM): 94.6% and 93.7% and 90% | viability, T/C (compound 0.316 µM): 75.7% and 85.7% and 97% | viability, T/C (compound 1 µM): 76.4% and 54.7% and 68.8% | viability, T/C (compound 3.16 µM): 4.37% and 1.19% and 2.28% | viability, T/C (compound 10 µM): 0.41% and 0.27% and 0.38% | IC50 (curve of compound): 1.52 µM and 1.08 µM and 1.38 µM
